# Measured values reported in BindingDB's records for doi:10.1021/jm030452x (University of Arizona, 2004).
# Biological target: Melanocyte-stimulating hormone receptor (Rana pipiens)
# Test: Inhibition of 1 nM alpha melanocortin stimulating hormone (MSH) from frog skin
row,IC50 [µM],SMILES
1,1,"C[C@@H](O)[C@H](NC(=O)[C@H]1NC(=O)[C@H](Cc2c[nH]c3ccccc23)NC(=O)[C@H](CCCN=C(N)N)NC(=O)[C@@H](Cc2c[nH]c3ccccc23)NC(=O)[C@H](Cc2ccc(O)cc2)NC(=O)[C@@H](NC(=O)[C@H](N)Cc2ccccc2)CSSC1(C)C)C(N)=O [1N-(1-carbamoyl-2-hydroxypropyl)-15-[3-amino(imino)methylaminopropyl]-6-(1-amino-2-phenylethylcarboxamido)-9-(4-hydroxybenzyl)-12,18-di(1H-3-indolylmethyl)-2,2-dimethyl-7,10,13,16,19-pentaoxo-3,4-dithia-8,11,14,17,20-pentaazacycloicosane-1-carboxami]"
2,1,"C[C@@H](O)[C@H](NC(=O)[C@H]1NC(=O)[C@H](CO)NC(=O)[C@H](CCCNC(=N)N)NC(=O)[C@@H](Cc2c[nH]c3ccccc23)NC(=O)[C@H](Cc2ccc(O)cc2)NC(=O)[C@@H](NC(=O)[C@H](N)Cc2ccccc2)CSSC1(C)C)C(N)=O [1N-(1-carbamoyl-2-hydroxypropyl)-15-[3-amino(imino)methylaminopropyl]-6-(1-amino-2-phenylethylcarboxamido)-9-(4-hydroxybenzyl)-18-hydroxymethyl-12-(1H-3-indolylmethyl)-2,2-dimethyl-7,10,13,16,19-pentaoxo-3,4-dithia-8,11,14,17,20-pentaazacycloicosane]"
3,1,"C[C@@H](O)[C@H](NC(=O)[C@H]1NC(=O)[C@H](Cc2c[nH]c3ccccc23)NC(=O)[C@H](CCCN=C(N)N)NC(=O)[C@@H](Cc2c[nH]c3ccccc23)NC(=O)[C@H](Cc2ccccc2)NC(=O)[C@@H](NC(=O)[C@H](N)Cc2ccccc2)CSSC1(C)C)C(N)=O [1N-(1-carbamoyl-2-hydroxypropyl)-15-[3-amino(imino)methylaminopropyl]-6-(1-amino-2-phenylethylcarboxamido)-9-benzyl-12,18-di(1H-3-indolylmethyl)-2,2-dimethyl-7,10,13,16,19-pentaoxo-3,4-dithia-8,11,14,17,20-pentaazacycloicosane-1-carboxamide]"
4,0.1,"C[C@@H](O)[C@H](NC(=O)[C@H]1NC(=O)[C@H]([C@@H](C)O)NC(=O)[C@H](CCCNC(=N)N)NC(=O)[C@@H](Cc2c[nH]c3ccccc23)NC(=O)[C@H](Cc2ccc(I)cc2)NC(=O)[C@@H](NC(=O)[C@H](N)Cc2ccccc2)CSSC1(C)C)C(N)=O [1N-(1-carbamoyl-2-hydroxypropyl)-15-[3-amino(imino)methylaminopropyl]-6-(1-amino-2-phenylethylcarboxamido)-18-(1-hydroxyethyl)-12-(1H-3-indolylmethyl)-9-(4-iodobenzyl)-2,2-dimethyl-7,10,13,16,19-pentaoxo-3,4-dithia-8,11,14,17,20-pentaazacycloicosane]"
5,1,"C[C@H](O)[C@@H](NC(=O)[C@H]1CSSC[C@H](NC(=O)[C@@H](N)Cc2ccccc2)C(=O)N[C@@H](Cc2c[nH]cn2)C(=O)N2Cc3ccccc3C[C@H]2C(=O)N[C@@H](CCCN=C(N)N)C(=O)N[C@H](Cc2c[nH]c3ccccc23)C(=O)N1)C(N)=O [(2R,3S)-2-{[(3S,6R,9S,14R,17S)-14-[(2S)-2-amino-3-phenylpropanamido]-3-{3-[(diaminomethylidene)amino]propyl}-17-(1H-imidazol-4-ylmethyl)-6-(1H-indol-3-ylmethyl)-1,4,7,15,18-pentaoxo-1H,2H,3H,4H,5H,6H,7H,8H,9H,10H,13H,14H,15H,16H,17H,18H,20H,25H,25aH-isoquinolino[3,2-m]1,2-dithia-5,8,11,14,17-pentaazacycloicosan-9-yl]formamido}-3-hydroxybutanamide]"

# Biological target: Melanocortin receptor 1 (Rana pipiens)
# Test: Effective concentration required for maximum agonist response at melanocortin 1 receptor from frog skin.
row,SMILES,EC50 [µM]
1,"C[C@@H](O)[C@H](NC(=O)[C@@H]1CCCCNC(=O)C[C@H](NC(=O)[C@H](N)Cc2ccccc2)C(=O)N[C@@H](Cc2cnc[nH]2)C(=O)N[C@H](Cc2ccccc2)C(=O)N[C@@H](CCCNC(=N)N)C(=O)N[C@@H](Cc2c[nH]c3ccccc23)C(=O)N1)C(N)=O [1N-(1-carbamoyl-2-hydroxypropyl)-7-[3-amino(imino)methylaminopropyl]-16-(1-amino-2-phenylethylcarboxamido)-10-benzyl-13-(1H-5-imidazolylmethyl)-4-(1H-3-indolylmethyl)-3,6,9,12,15,18-hexaoxo-2,5,8,11,14,19-hexaazacyclotricosane-1-carboxamide]",0.0001
2,C[C@@H](O)[C@H](NC(=O)[C@H]1NC(=O)[C@H](Cc2c[nH]c3ccccc23)NC(=O)[C@H](CCCNC(=N)N)NC(=O)[C@@H](Cc2ccccc2)NC(=O)[C@H](Cc2cnc[nH]2)NC(=O)[C@@H](NC(=O)[C@H](N)Cc2ccccc2)CSSC1(C)C)C(N)=O [H-D-Phe-c[Cys-His-D-Phe-Arg-Trp-Pen]-Thr-NH2],0.1

# Other lines, results leading:
row,EC50 [µM],SMILES
1,5,"C[C@@H](O)[C@H](NC(=O)[C@@H]1CSSC[C@H](NC(=O)[C@H](N)Cc2ccccc2)C(=O)N[C@@H](Cc2cnc[nH]2)C(=O)N[C@@H](Cc2cccc3ccccc23)C(=O)N[C@@H](CCCNC(=N)N)C(=O)N[C@H](Cc2c[nH]c3ccccc23)C(=O)N1)C(N)=O [1N-(1-carbamoyl-2-hydroxypropyl)-15-[3-amino(imino)methylaminopropyl]-6-(1-amino-2-phenylethylcarboxamido)-9-(1H-5-imidazolylmethyl)-18-(1H-3-indolylmethyl)-12-(1-naphthylmethyl)-7,10,13,16,19-pentaoxo-3,4-dithia-8,11,14,17,20-pentaazacycloicosan]"
2,0.03,"C[C@H](O)[C@@H](NC(=O)[C@H]1CSSC[C@H](NC(=O)[C@H](N)Cc2ccccc2)C(=O)N[C@@H](Cc2cnc[nH]2)C(=O)N[C@@H](Cc2ccc(Cl)cc2)C(=O)N[C@@H](CCCNC(=N)N)C(=O)N[C@H](Cc2c[nH]c3ccccc23)C(=O)N1)C(N)=O [1N-(1-carbamoyl-2-hydroxypropyl)-15-[3-amino(imino)methylaminopropyl]-6-(1-amino-2-phenylethylcarboxamido)-12-(4-chlorobenzyl)-9-(1H-5-imidazolylmethyl)-18-(1H-3-indolylmethyl)-7,10,13,16,19-pentaoxo-3,4-dithia-8,11,14,17,20-pentaazacycloicosane-]"
3,1,"C[C@@H](O)[C@H](NC(=O)[C@@H]1CSSC[C@H](NC(=O)[C@H](N)Cc2ccccc2)C(=O)N[C@@H](Cc2cnc[nH]2)C(=O)N[C@@H](Cc2ccc(F)cc2)C(=O)N[C@@H](CCCNC(=N)N)C(=O)N[C@H](Cc2c[nH]c3ccccc23)C(=O)N1)C(N)=O [1N-(1-carbamoyl-2-hydroxypropyl)-15-[3-amino(imino)methylaminopropyl]-6-(1-amino-2-phenylethylcarboxamido)-12-(4-fluorobenzyl)-9-(1H-5-imidazolylmethyl)-18-(1H-3-indolylmethyl)-7,10,13,16,19-pentaoxo-3,4-dithia-8,11,14,17,20-pentaazacycloicosane-]"
4,3,"C[C@@H](O)[C@H](NC(=O)[C@H]1CSSC[C@H](NC(=O)[C@@H](N)Cc2ccccc2)C(=O)N[C@@H](Cc2cnc[nH]2)C(=O)N[C@H](Cc2ccccc2)C(=O)N[C@@H](CCCNC(=N)N)C(=O)N[C@H](Cc2c[nH]c3ccccc23)C(=O)N1)C(N)=O [1N-(1-carbamoyl-2-hydroxypropyl)-15-[3-amino(imino)methylaminopropyl]-6-(1-amino-2-phenylethylcarboxamido)-12-benzyl-9-(1H-5-imidazolylmethyl)-18-(1H-3-indolylmethyl)-7,10,13,16,19-pentaoxo-3,4-dithia-8,11,14,17,20-pentaazacycloicosane-1-carboxam]"
5,0.01,"C[C@@H](O)[C@H](NC(=O)[C@H]1CSSC[C@H](NC(=O)[C@H](N)Cc2ccccc2)C(=O)N[C@@H](Cc2cnc[nH]2)C(=O)N[C@@H](Cc2ccccc2)C(=O)N[C@@H](CCCNC(=N)N)C(=O)N[C@H](Cc2c[nH]c3ccccc23)C(=O)N1)C(N)=O [1N-(1-carbamoyl-2-hydroxypropyl)-15-[3-amino(imino)methylaminopropyl]-6-(1-amino-2-phenylethylcarboxamido)-12-benzyl-9-(1H-5-imidazolylmethyl)-18-(1H-3-indolylmethyl)-7,10,13,16,19-pentaoxo-3,4-dithia-8,11,14,17,20-pentaazacycloicosane-1-carboxam]"
6,1,"C[C@@H](O)[C@H](NC(=O)[C@@H]1CCSSC[C@H](NC(=O)[C@H](N)Cc2ccccc2)C(=O)N[C@@H](Cc2cnc[nH]2)C(=O)N[C@H](Cc2ccccc2)C(=O)N[C@@H](CCCNC(=N)N)C(=O)N[C@@H](Cc2c[nH]c3ccccc23)C(=O)N1)C(N)=O [1N-(1-carbamoyl-2-hydroxypropyl)-16-[3-amino(imino)methylaminopropyl]-7-(1-amino-2-phenylethylcarboxamido)-13-benzyl-10-(1H-5-imidazolylmethyl)-19-(1H-3-indolylmethyl)-8,11,14,17,20-pentaoxo-4,5-dithia-9,12,15,18,21-pentaazacyclohenicosane-1-carb]"
7,0.0003,C[C@@H](O)[C@H](NC(=O)[C@@H]1CSSCC[C@H](NC(=O)[C@H](N)Cc2ccccc2)C(=O)N[C@@H](Cc2cnc[nH]2)C(=O)N[C@H](Cc2ccccc2)C(=O)N[C@@H](CCCNC(=N)N)C(=O)N[C@@H](Cc2c[nH]c3ccccc23)C(=O)N1)C(N)=O [H-D-Phe-c[Hcy-His-D-Phe-Arg-Trp-Cys]-Thr-NH2]
